The text below walks through data of patent publication US7514254B2, “Plant-derived alkaline alpha-galactosidase” (The State of Israel, Ministry of Agriculture & Rural …, priority 1998, dated 2009).

Data set [1] concerns melon (Cucumis melo) fruit acid form alpha-galactosidase. The data set is described as follows: Substrate kinetics (Lineweaver-Burk) of acid alpha-galactosidase. The format is biochemical, muskmelon (Cucumis melo L. cv C-8). Conditions: for Km / Vmax: Lineweaver-Burk. The procedure: For routine analysis and monitoring the activity in the purification steps, alpha-galactosidase was assayed as described by Smart and Pharr (“Characterization of alpha-galactosidase from cucumber leaves”, Plant Physiology, 66:731-734, 1980), using p-nitrophenyl alpha-galactoside (pNPG) as substrate. […] The reaction was terminated after 10 min by adding 1 ml of 5% (w/v) Na2CO3 and activity expressed as nmol nitrophenol per min as measured at 410 nm. […] The assay was started by adding 50 μl enzyme preparation at 35 C and terminated after 10 to 20 min by 2 min boiling. […] For the partial purification of the acid form of alpha-galactosidase the fractions active at pH 5.5 were pooled and concentrated by reverse dialysis against solid sucrose. […] The active fractions were then desalted by dialysis against buffer A for 12 hours with two changes of the buffer. This enzyme fraction was used for the characterization of the acidic form of alpha-galactosidase. […] The substrate specificity of the alpha-galactosidases was tested with pNPG, stachyose, raffinose, melibiose or guar gum (Sigma).

Data set [2] has as its system Escherichia coli K12 alpha-galactosidase. The note with it: Schmid and Schmitt 1976; cited from earlier work.
Data set [3] deals with Pseudomonas fluorescens H-601 alpha-galactosidase. Conditions: Hashimoto et al. 1991; relative Km values; cited from earlier work.
Data set [4] addresses T1, melon (Cucumis melo) fruit alkaline alpha-galactosidase Form II (Cucumis melo, UniProt Q84NI6).
T1 construct: native 102 kDa, denatured 92 kDa; assayed at pH 7.5
T1 sequence (Q84NI6 1-772): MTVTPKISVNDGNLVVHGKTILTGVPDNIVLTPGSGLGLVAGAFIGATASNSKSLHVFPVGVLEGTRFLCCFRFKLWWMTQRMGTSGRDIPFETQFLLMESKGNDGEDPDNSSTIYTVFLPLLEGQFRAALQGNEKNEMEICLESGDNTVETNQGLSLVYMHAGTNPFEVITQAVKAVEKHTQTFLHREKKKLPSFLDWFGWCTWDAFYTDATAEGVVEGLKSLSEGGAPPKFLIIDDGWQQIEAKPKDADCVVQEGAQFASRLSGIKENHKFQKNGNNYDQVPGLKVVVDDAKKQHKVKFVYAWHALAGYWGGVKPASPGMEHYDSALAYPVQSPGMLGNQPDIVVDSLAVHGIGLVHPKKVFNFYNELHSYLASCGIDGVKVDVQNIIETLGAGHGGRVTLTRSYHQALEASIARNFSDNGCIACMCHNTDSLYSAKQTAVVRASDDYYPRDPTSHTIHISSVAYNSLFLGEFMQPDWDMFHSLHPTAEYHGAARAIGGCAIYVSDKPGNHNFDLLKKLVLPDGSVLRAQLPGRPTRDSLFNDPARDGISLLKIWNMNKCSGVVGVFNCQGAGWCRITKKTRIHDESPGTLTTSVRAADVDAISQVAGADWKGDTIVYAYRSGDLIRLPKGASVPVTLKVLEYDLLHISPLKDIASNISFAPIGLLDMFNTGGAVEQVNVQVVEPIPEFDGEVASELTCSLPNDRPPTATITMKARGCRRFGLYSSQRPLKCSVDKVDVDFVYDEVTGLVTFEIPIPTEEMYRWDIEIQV
Description: Substrate kinetics (Lineweaver-Burk) of alkaline alpha-galactosidase Form II. The format is biochemical, muskmelon (Cucumis melo L. cv C-8). Conditions: for Vmax: Lineweaver-Burk. The procedure: (§1) For routine analysis and monitoring the activity in the purification steps, alpha-galactosidase was assayed as described by Smart and Pharr (“Characterization of alpha-galactosidase from cucumber leaves”, Plant Physiology, 66:731-734, 1980), using p-nitrophenyl alpha-galactoside (pNPG) as substrate. Reaction was initiated by adding 50 μl enzyme aliquot to either 200 μl 100 mM pH 5.5 McIlvaine buffer or 100 mM pH 7.5 HEPES buffer, containing 5 mM pNPG at 35 C. The reaction was terminated after 10 min by adding 1 ml of 5% (w/v) Na2CO3 and activity expressed as nmol nitrophenol per min as measured at 410 nm. […] The assay was started by adding 50 μl enzyme preparation at 35 C and terminated after 10 to 20 min by 2 min boiling.
(§2) The fractions from the DEAE-Sepharose chromatography which were active at pH 7.5 were pooled and dialyzed against buffer A for 12 h prior to loading onto an HPLC ion exchange chromatography column (Mono-Q HR 5/5, Pharmacia, Uppsala, Sweden), previously equilibrated with buffer A. Bound proteins were eluted with a linear gradient of 0.1 to 0.45 M NaCl and the active fractions were detected using pNPG as substrate at pH 7.5 as described above. […] For the further purification of Form II the active fractions of the peak II were chromatographed on hydrophobic interaction chromatography. The fractions were pooled, brought to 1 M (NH4)2SO4 and loaded on to a hydrophobic interaction column (phenyl-Sepharose CL-4B, 0.5×12 cm, Pharmacia, Uppsala, Sweden) previously equilibrated with buffer A containing 1 M (NH4)2SO4. The protein was eluted with a reverse stepwise gradient from 1 to 0 M (NH4)2SO4 with 50 mM intervals in buffer A. Fractions containing the activity peak were collected and dialyzed for 12 h against buffer A and the dialysate was concentrated by reverse dialysis against solid sucrose. The enzyme, partially purified by hydrophobic interaction chromatography, was used for the characterization of Form II. The active fractions from the hydrophobic interaction column were further purified. Active fractions were separated electrophoretically using a Mini Prep Cell (Bio-Rad Laboratories, Hercules, Calif.) for discontinuous native-PAGE with 7% polyacrylamide, according to manufacturer's instructions. Fractions (0.25 ml/fraction) were assayed at pH 7.5 with pNPG as substrate for the activity. The active fractions were pooled, concentrated by Vivaspin Concentrator (Vivascience LTD, Lincoln, England), and run in a 8% SDS-PAGE. Proteins in the SDS-PAGE were identified using Coomassie Blue staining.

In data set [5] the target is T2, melon (Cucumis melo) fruit alkaline alpha-galactosidase Form I (Cucumis melo, UniProt Q84NI7).
T2 sequence (Q84NI7 1-754): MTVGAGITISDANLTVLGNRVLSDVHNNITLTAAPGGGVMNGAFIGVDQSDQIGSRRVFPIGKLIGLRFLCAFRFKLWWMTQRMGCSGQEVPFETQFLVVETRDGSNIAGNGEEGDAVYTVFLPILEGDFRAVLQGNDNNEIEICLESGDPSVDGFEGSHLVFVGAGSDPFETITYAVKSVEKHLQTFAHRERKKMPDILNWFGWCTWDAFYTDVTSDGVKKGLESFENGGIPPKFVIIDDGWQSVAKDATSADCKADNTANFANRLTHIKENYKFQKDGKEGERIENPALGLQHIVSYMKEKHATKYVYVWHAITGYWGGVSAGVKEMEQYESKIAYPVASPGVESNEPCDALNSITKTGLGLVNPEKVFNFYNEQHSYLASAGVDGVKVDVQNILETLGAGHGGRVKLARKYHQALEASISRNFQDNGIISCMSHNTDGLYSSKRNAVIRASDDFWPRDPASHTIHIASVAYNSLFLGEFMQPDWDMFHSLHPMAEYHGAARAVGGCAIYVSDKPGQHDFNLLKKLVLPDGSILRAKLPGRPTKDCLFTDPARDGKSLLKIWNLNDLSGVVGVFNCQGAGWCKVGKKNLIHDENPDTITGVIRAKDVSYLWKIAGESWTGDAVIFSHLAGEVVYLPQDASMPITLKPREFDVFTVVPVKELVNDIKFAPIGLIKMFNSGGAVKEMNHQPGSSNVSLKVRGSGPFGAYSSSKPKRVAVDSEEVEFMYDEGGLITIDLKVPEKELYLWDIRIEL
The data set is described as follows: Substrate kinetics (Lineweaver-Burk) of alkaline alpha-galactosidase Form I. Conditions: for Vmax: Lineweaver-Burk. How it is done:
as §1, §2
Therefore, the active fractions from the Mono-Q column were used for the characterization of Form I. In addition, the Form I enzyme was further purified, as described in the following section.

The conditions of data set [6]: raffinose versus melibiose; literature; cited from earlier work.
Substrate in data set [7]: OC[C@H]1O[C@H](OC[C@H]2OC(O)[C@H](O)[C@@H](O)[C@@H]2O)[C@H](O)[C@@H](O)[C@H]1O
Description: purified protein, by the assay type. The note with it: other: alkaline Form I; Lineweaver-Burk; 35.0 °C.

Substrate in data set [8]: OC[C@H]1O[C@H](OC[C@H]2O[C@H](OC[C@H]3O[C@H](O[C@]4(CO)O[C@H](CO)[C@@H](O)[C@@H]4O)[C@H](O)[C@@H](O)[C@@H]3O)[C@H](O)[C@@H](O)[C@H]2O)[C@H](O)[C@@H](O)[C@H]1O
The data set is described as follows: purified protein, by the assay type. The note with it: other: alkaline Form I; Lineweaver-Burk; 35.0 °C.

Substrate in data set [9]: O=[N+]([O-])c1ccc(O[C@H]2O[C@H](CO)[C@H](O)[C@H](O)[C@H]2O)cc1
Description: purified protein, by the assay type. The note with it: other: alkaline Form I; Lineweaver-Burk; 35.0 °C.

Substrate in data set [10]: OC[C@H]1O[C@H](OC[C@H]2O[C@H](O[C@]3(CO)O[C@H](CO)[C@@H](O)[C@@H]3O)[C@H](O)[C@@H](O)[C@@H]2O)[C@H](O)[C@@H](O)[C@H]1O
Description: purified protein, by the assay type. Conditions: other: alkaline Form I; Lineweaver-Burk; 35.0 °C.

Usually Km stands for the concentration of substrate that gives half-maximal velocity. For `OC[C@H]1O[C@H](OC[C@H]2OC(O)[C@H](O)[C@@H](O)[C@@H]2O)[C@H](O)[C@@H](O)[C@H]1O` (stereo partly drawn) [Melibiose, 6-O-alpha-D-galactopyranosyl-D-glucose], the Vmax/Km ratio in [1] is 0.27. The Km in data set [1] was 700 µM; in data set [2], 3.2 mM; in data set [3], 3.2 mM. Moreover, the Vmax is on record as 0.19 μmol mg^−1 protein min^−1 in [1], 0.23 μmol mg^−1 protein min^−1 in data set [4] and 0.3 μmol mg^−1 protein min^−1 in [5].
For the molecule `O=[N+]([O-])c1ccc(O[C@H]2O[C@H](CO)[C@H](O)[C@H](O)[C@H]2O)cc1` [pNPG, p-nitrophenyl alpha-galactopyranoside], in data set [1], the Vmax/Km ratio stood at 5.00, the Km was found to be 300 µM and the Vmax came to 1.5 μmol mg^−1 protein min^−1. Moreover, the “pNPG concentration above which enzyme is inhibited (substrate inhibition)” value in data set [1] (pNPG as substrate) was “above 5 mM”. In data set [4], the Vmax/Km ratio was 2.63 and the Vmax came to 7.9 μmol mg^−1 protein min^−1. In [5], the Vmax/Km ratio worked out at 1.17 and the Vmax is 1.4 μmol mg^−1 protein min^−1.

B1: alpha-galactosidase from Escherichia coli K12: alpha-galactosidase of Schmid and Schmitt, tetrameric protein (protein, UniProt P06720 1-451, looked up)
Alpha-galactosidase: MMSAPKITFIGAGSTIFVKNILGDVFHREALKTAHIALMDIDPTRLEESHIVVRKLMDSAGASGKITCHTQQKEALEDADFVVVAFQIGGYEPCTVTDFEVCKRHGLEQTIADTLGPGGIMRALRTIPHLWQICEDMTEVCPDATMLNYVNPMAMNTWAMYARYPHIKQVGLCHSVQGTAEELARDLNIDPATLRYRCAGINHMAFYLELERKTADGSYVNLYPELLAAYEAGQAPKPNIHGNTRCQNIVRYEMFKKLGYFVTESSEHFAEYTPWFIKPGREDLIERYKVPLDEYPKRCVEQLANWHKELEEYKKASRIDIKPSREYASTIMNAIWTGEPSVIYGNVRNDGLIDNLPQGCCVEVACLVDANGIQPTKVGTLPSHLAALMQTNINVQTLLTEAILTENRDRVYHAAMMDPHTAAVLGIDEIYALVDDLIAAHGDWLPGWLHR
Consider B1, for which the “activity with raffinose as compared to melibiose” value in [6] is “about 4%”.

B2: melon (Cucumis melo) fruit alkaline alpha-galactosidase Form I (Cucumis melo) (protein)
chain: MTVGAGITISDANLTVLGNRVLSDVHNNITLTAAPGGGVMNGAFIGVDQSDQIGSRRVFPIGKLIGLRFLCAFRFKLWWMTQRMGCSGQEVPFETQFLVVETRDGSNIAGNGEEGDAVYTVFLPILEGDFRAVLQGNDNNEIEICLESGDPSVDGFEGSHLVFVGAGSDPFETITYAVKSVEKHLQTFAHRERKKMPDILNWFGWCTWDAFYTDVTSDGVKKGLESFENGGIPPKFVIIDDGWQSVAKDATSADCKADNTANFANRLTHIKENYKFQKDGKEGERIENPALGLQHIVSYMKEKHATKYVYVWHAITGYWGGVSAGVKEMEQYESKIAYPVASPGVESNEPCDALNSITKTGLGLVNPEKVFNFYNEQHSYLASAGVDGVKVDVQNILETLGAGHGGRVKLARKYHQALEASISRNFQDNGIISCMSHNTDGLYSSKRNAVIRASDDFWPRDPASHTIHIASVAYNSLFLGEFMQPDWDMFHSLHPMAEYHGAARAVGGCAIYVSDKPGQHDFNLLKKLVLPDGSILRAKLPGRPTKDCLFTDPARDGKSLLKIWNLNDLSGVVGVFNCQGAGWCKVGKKNLIHDENPDTITGVIRAKDVSYLWKIAGESWTGDAVIFSHLAGEVVYLPQDASMPITLKPREFDVFTVVPVKELVNDIKFAPIGLIKMFNSGGAVKEMNHQPGSSNVSLKVRGSGPFGAYSSSKPKRVAVDSEEVEFMYDEGGLITIDLKVPEKELYLWDIRIEL
As for B2, the Km amounted to 20 mM in data set [7], 4 mM in [8], 1.2 mM in [9] and 1.5 mM in data set [10]. For the same molecule, the figures for the Vmax in data set [7], in data set [8] and in data set [10] were 0.3 µmol/min, 0.24 µmol/min and 0.56 µmol/min, respectively.
